These results are taken from patent US20070212360A1, “Modulation of mitochondrial oxygen consumption for therapeutic purposes” (priority 2006, published 2007).

The subject of assay [1] is HIF1 targets PDK1, Bnip3, and Bnip3L in RKO and Su.86 human tumor cells. In words: Western blot of HIF1 target proteins in hypoxic tumor cells. It is filed as cell-based. The following applies: RKO and Su.86 cells, 0.5% O2 24 h, 2 ng/ml echinomycin. On the procedure: FIG. 7. Inhibition of HIF1 and PDK1 increases oxygen consumption in vitro and in vivo. (a) Western blots of extracts from RKO and Su.86 cells exposed to normoxia (N) or hypoxia (H) (0.5% O2) for 24 h in the presence or absence of 2 ng/ml echinomycin probed for the indicated proteins. (b) Oxygen consumption rates of RKO and RKOShHIF1α cells (left) and Su.86 cells (right) after 24 h treatment with normoxia or hypoxia (0.5% O2) with or without 2 ng/ml echinomycin. Data are normalized to normoxic samples. (c) Relative oxygen consumption of RKO cells treated with hypoxia (0.5% O2) for 24 h in the presence of increasing concentrations of echinomycin. (d) Oxygen consumption rates of freshly explanted tumor tissue from RKO (n=16) and RKOShHIF1α (n=8) xenografts. (e) Oxygen consumption rates of RKO and RKOShHIF1 tumors from mice treated with 0.12 mg/kg echinomycin ip 24 h prior (n=8), or 50 mg/kg DCA ip 4 h prior (n=8). […]
Western blots. In brief, cells were harvested directly in RIPA buffer containing protease inhibitors, protein concentrations were quantified (Pierce), 25-50 μg of total protein was electrophoresed on a reducing Tris-Tricine gel, and electroblotted to PVDF membrane. […] Primary antibodies were detected with species-specific secondary antibodies labeled with Alkaline Phosphatase (Vector labs) (1:3000) and visualized with ECF (Amersham) on a Storm 860 phosphoimager (Molecular Devices).
For orientation: In western blotting, separated proteins are transferred to a membrane and probed.

Assay [2] concerns PDK1 in wildtype and HIF1α knockout mouse embryo fibroblasts (MEFs). In words: Western blot of PDK1 in hypoxic MEFs. The following applies: 0.5% O2 24 h, 2 ng/ml. It is filed as cell-based. How it is done: FIG. 11. Inhibition of HIF1 increases oxygen consumption in vitro. (a) Western blot of wildtype and HIF1α knockout MEFs exposed normoxia (N) or hypoxia (H) (0.5% O2) for 24 hours in the presence or absence of 2 ng/ml echinomycin. (b) In vitro oxygen consumption of wildtype and HIF1α knockout MEFs (b) after exposure to 24 hours of normoxia or hypoxia (0.5% O2) in the presence or absence of 2 ng/ml echinomycin. Data are normalized to normoxic values. (*) indicate a significant difference relative to control (p<0.05).
Western blots. In brief, cells were harvested directly in RIPA buffer containing protease inhibitors, protein concentrations were quantified (Pierce), 25-50 μg of total protein was electrophoresed on a reducing Tris-Tricine gel, and electroblotted to PVDF membrane. Antibodies used were rabbit anti-PDK1 (Stressgen) (1:2000), murine anti-α tubulin (Research Diagnostics) (1:2000), and rabbit anti-Bnip3 and anti-Bnip3L as described previously by Papandreou et al. (2005) Cancer research 65, 3171-8. (1:500). Primary antibodies were detected with species-specific secondary antibodies labeled with Alkaline Phosphatase (Vector labs) (1:3000) and visualized with ECF (Amersham) on a Storm 860 phosphoimager (Molecular Devices).

In assay [3] the test system is RKO and RKOShHIF1α tumors. In words: Tumor growth delay, RKO and RKOShHIF1α xenografts. It is filed as in vivo, mouse. How it is done:
FIG. 10. Pharmacologic inhibition of HIF1 or PDK1 enhances the response of tumor xenografts to the hypoxic cytotoxin tirapazamine. For all experiments, treatment was initiated when the mean tumor volume was 100-200 mm^3. (a) RKO tumor bearing mice were treated with 0.12 mg/kg echinomycin ip followed by 30 mg/kg tirapazamine ip at 24 hours, followed by a rest day for 3 cycles. Single agents were given at the same dose, on the same schedule. (b) RKO tumor bearing mice were treated with 50 mg/kg DCA ip followed by 20 mg/kg tirapazamine ip at 4 hours daily for 14 days. Single agents were given at the same dose, on the same schedule. (c,d,e) RKO (c), RKOShHIF1α (d), or Su.86 (e) tumor bearing mice were treated with echinomycin plus tirapazamine as described above for 6 cycles (Ech+TPZ), or tirapazamine followed by echinomycin at 24 hours followed by a rest day for 6 cycles (TPZ+Ech). For all experiments, arrows indicate when treatment was stopped.
Cell lines and tumor xenografts. RKO human colon carcinoma cells and Su.86 human pancreatic carcinoma cells were obtained from the American Type Culture Collection (ATCC, Manassas, Va.). The RKOShHIF1α cell line in which HIF1α is stably knocked down by shRNA has been described previously. RKO and immortalized MEF cells were grown in Dulbecco's Modified Eagle's Media (DMEM) supplemented with 10% fetal bovine serum (FBS). Su.86 cells were grown in RPMI 1640 medium supplemented with 10% FBS. Cells were exposed to hypoxia by placing culture dishes into an Invivo2 humidified hypoxia workstation (Ruskin Technologies, Bridgend, UK) at 0.5% O2. Echinomycin (a gift of A. Giaccia, Stanford University) was included in the media at the indicated concentrations. Tumor xenografts were established by injecting 5×10^6 cells for the RKO lines or 1×10^7 cells for the Su.86 line sc into the flanks of 6-8 week old female nude mice. To monitor tumor growth, caliper measurements were made of two perpendicular diameters, and the formula (d1)(d2)(d2)(0.52) was used to calculate tumor volume. […]

For `CS[C@H]1SC[C@H]2C(=O)N(C)[C@@H](C(C)C)C(=O)OC[C@@H](NC(=O)c3cnc4ccccc4n3)C(=O)N[C@@H](C)C(=O)N(C)[C@@H]1C(=O)N(C)[C@@H](C(C)C)C(=O)OC[C@@H](NC(=O)c1cnc3ccccc3n1)C(=O)N[C@@H](C)C(=O)N2C` [echinomycin], the “hypoxic induction of PDK1, Bnip3, and Bnip3L (immunoblot)” value in assay [1] is “blocked”. The “hypoxic expression of PDK1 in HIF1α deficient cells” value in assay [2] (HIF1α knockout MEFs) is reported as “no effect”. Also, the “hypoxic PDK1 induction in wildtype MEFs” value in assay [2] (wildtype MEFs) was “blocked PDK1 induction”. The “tumor growth delay of combination compared to single agents, RKO tumors” value in assay [3] (0.12 mg/kg echinomycin ip followed at 24 h by 30 mg/kg tirapazamine ip, rest day, 3 cycles) is reported as “greater than additive”. Also, in assay [3] (echinomycin plus tirapazamine, regardless of the order the drugs were given, 6 cycles), the “effect on tumor growth, RKOShHIF1 tumors” value is reported as “no significant effect”. Also, the “effect on growth of RKO tumors, reversed schedule” value in assay [3] (tirapazamine followed by echinomycin at 24 hours, 6 cycles, compared to echinomycin followed by tirapazamine) is on record as “little effect”.
